Experimental data from ChEMBL document CHEMBL5370580, “Discovery of three-dimensional bicyclo[3.3.1]nonanols as novel heat shock protein 90 inhibitors” (Bioorg Med Chem, 2023).
Activity calls are given as the source filed them. The calls are words filed in the database; no cut-off is given here.

Tests used:
[1] = Inhibition of HIF-1 mediated gene transcription activity in human HeLa cells co-expressing HRE dependent firefly luciferase reporter gene pre-incubated for 1 hrs followed by incubation at hypoxic condition for 12 hrs by luciferase reporter gene assay; format: cell-based
[2] = tested on: HeLa; experiment: Anticancer activity against human HeLa cells assessed as cell growth inhibition measured after 72 hrs by MTT assay; format: functional, cell-based
[3] = target: Hypoxia-inducible factor 1-alpha (Homo sapiens) (UniProt Q16665); experiment: Induction of HIF-1alpha degradation in human HeLa cells assessed as reduction in HIF-1alpha accumulation upto 100 uM incubated for 12 hrs under hypoxia condition by Western blot analysis; format: cell-based
Chain of Hypoxia-inducible factor 1-alpha (Homo sapiens) (Q16665 whole entry, looked up): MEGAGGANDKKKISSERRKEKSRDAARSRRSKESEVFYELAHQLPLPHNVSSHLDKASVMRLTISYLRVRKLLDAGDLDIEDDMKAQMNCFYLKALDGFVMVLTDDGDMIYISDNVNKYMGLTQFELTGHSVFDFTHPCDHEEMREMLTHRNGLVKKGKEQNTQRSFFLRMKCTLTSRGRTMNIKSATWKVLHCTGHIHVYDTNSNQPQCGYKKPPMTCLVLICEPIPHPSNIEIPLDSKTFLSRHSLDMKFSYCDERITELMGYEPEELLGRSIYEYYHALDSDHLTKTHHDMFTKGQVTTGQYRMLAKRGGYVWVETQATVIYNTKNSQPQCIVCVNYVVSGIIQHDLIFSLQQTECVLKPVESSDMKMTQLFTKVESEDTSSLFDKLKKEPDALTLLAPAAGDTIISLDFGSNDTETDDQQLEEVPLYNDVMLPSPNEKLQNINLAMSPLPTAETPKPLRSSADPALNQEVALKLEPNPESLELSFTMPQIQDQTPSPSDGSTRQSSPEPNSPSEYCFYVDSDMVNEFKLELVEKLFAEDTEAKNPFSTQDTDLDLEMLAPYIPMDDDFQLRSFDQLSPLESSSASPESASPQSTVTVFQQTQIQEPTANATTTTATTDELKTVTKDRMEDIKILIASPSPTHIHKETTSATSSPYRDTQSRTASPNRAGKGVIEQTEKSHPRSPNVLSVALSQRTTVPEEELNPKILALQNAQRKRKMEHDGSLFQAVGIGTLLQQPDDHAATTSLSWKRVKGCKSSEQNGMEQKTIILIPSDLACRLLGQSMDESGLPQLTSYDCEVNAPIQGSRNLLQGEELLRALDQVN

[4] = target: Hypoxia-inducible factor 1-alpha (Homo sapiens) (UniProt Q16665); experiment: Induction of HIF-1alpha degradation in human HeLa cells assessed as reduction in CA9 protein expression upto 100 uM incubated for 12 hrs under hypoxia condition by Western blot analysis; format: cell-based
[5] = tested on: HeLa; experiment: Effect on HIF-1alpha mRNA expression in human HeLa cells at 100 uM pre-incubated for 1 hr followed by incubation at hypoxic condition for 12 hrs by RT-PCR assay; format: functional, cell-based; conditions: time 13.0 hrs
[6] = tested on: HeLa; experiment: Effect on CA9 mRNA expression in human HeLa cells at 100 uM pre-incubated for 1 hr followed by incubation at hypoxic condition for 12 hrs by RT-PCR assay; format: functional, cell-based; conditions: time 13.0 hrs
[7] = tested on: HeLa; experiment: Effect on HIF-1alpha mRNA expression in human HeLa cells at 1 to 100 uM pre-incubated for 1 hr followed by incubation at hypoxic condition for 12 hrs by semi-quantitative RT-PCR assay; format: functional, cell-based; conditions: dose 1-100 µM, time 13.0 hrs
[8] = target: T1, Heat shock protein HSP90 (Homo sapiens, UniProt P07900+P08238); experiment: Inhibition of HSP90 in human HeLa cells assessed as reduction in CDK4 protein expression at 30 to 100 uM measured after 24 hrs by Western blot analysis; format: cell-based; conditions: dose 30-100 µM
[9] = target: T1, Heat shock protein HSP90; experiment: Inhibition of HSP90 in human HeLa cells assessed as reduction in AKT phosphorylation at 30 to 100 uM measured after 12 hrs by Western blot analysis; format: cell-based; conditions: dose 30-100 µM
[10] = target: T1, Heat shock protein HSP90; experiment: Inhibition of HSP90 in human HeLa cells assessed as reduction in p70s6k phosphorylation at 30 to 100 uM measured after 12 hrs by Western blot analysis; format: cell-based; conditions: dose 30-100 µM
[11] = target: T1, Heat shock protein HSP90; experiment: Inhibition of HSP90 in human HeLa cells assessed as reduction in ERK phosphorylation at 30 to 100 uM measured after 12 hrs by Western blot analysis; format: cell-based; conditions: dose 30-100 µM
[12] = tested on: HeLa; experiment: Effect on HSP90 protein expression in human HeLa cells at 30 to 100 uM measured after 24 hrs by Western blot analysis; format: functional, cell-based; conditions: dose 30-100 µM
[13] = tested on: HeLa; experiment: Effect on HSP70 protein expression in human HeLa cells at 30 to 100 uM measured after 24 hrs by Western blot analysis; format: functional, cell-based; conditions: dose 30-100 µM
[14] = Effect on HSP90 protein expression in human HeLa cells assessed as fold change at 100 uM measured after 24 hrs by immunoblotting analysis (reference value: 1); format: functional
[15] = Effect on HSF1 protein expression in human HeLa cells assessed as fold change at 100 uM measured after 24 hrs by immunoblotting analysis (reference value: 1); format: functional
[16] = target: T2, Heat shock factor protein 1 (Homo sapiens) (UniProt Q00613); experiment: Activation of HSF1 in human HeLa cells assessed as increase in HSP70 mRNA expression at 100 uM measured after 12 hrs by Real-time PCR assay; format: cell-based
T2 sequence (whole entry): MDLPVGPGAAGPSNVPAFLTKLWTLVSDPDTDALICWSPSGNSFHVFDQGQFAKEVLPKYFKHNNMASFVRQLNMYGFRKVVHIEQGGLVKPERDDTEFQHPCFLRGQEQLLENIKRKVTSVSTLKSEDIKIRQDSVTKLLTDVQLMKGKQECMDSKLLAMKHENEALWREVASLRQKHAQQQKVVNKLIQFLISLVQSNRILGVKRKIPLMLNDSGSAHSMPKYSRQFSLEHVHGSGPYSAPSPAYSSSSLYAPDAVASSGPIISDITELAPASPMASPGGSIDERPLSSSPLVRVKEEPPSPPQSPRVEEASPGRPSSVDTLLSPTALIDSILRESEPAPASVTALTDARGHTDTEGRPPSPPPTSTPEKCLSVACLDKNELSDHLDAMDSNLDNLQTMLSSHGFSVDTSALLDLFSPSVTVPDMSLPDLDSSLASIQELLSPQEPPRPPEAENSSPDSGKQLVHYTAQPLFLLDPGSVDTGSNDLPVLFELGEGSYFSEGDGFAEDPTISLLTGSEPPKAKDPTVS

[17] = target: T2, Heat shock factor protein 1 (Homo sapiens); experiment: Activation of HSF1 in human HeLa cells assessed as increase in HSP47 mRNA expression at 100 uM measured after 12 hrs by Real-time PCR assay; format: cell-based
[18] = target: T2, Heat shock factor protein 1 (Homo sapiens); experiment: Activation of HSF1 in human HeLa cells assessed as increase in HSP27 mRNA expression at 100 uM measured after 12 hrs by Real-time PCR assay; format: cell-based
[19] = target: T1, Heat shock protein HSP90; experiment: Inhibition of recombinant human HSP90 ATPase activity expressed in Escherichia coli BL21 incubated for 3 hrs in presence of ATP by malachite green dye based microplate reader analysis
[20] = target: T1, Heat shock protein HSP90; experiment: Inhibition of recombinant human HSP90 expressed in Escherichia coli BL21 assessed as increase in DTT induced insulin aggregation by measuring increase in absorbance at 100 uM pre-incubated for 1 hrs followed by DTT addition by microplate reader analysis
[21] = tested on: HeLa; experiment: Effect on CA9 mRNA expression in human HeLa cells at 1 to 100 uM pre-incubated for 1 hr followed by incubation at hypoxic condition for 12 hrs by semi-quantitative RT-PCR assay; format: functional, cell-based; conditions: dose 1-100 µM, time 13.0 hrs
[22] = Effect on HSP70 protein expression in human HeLa cells assessed as fold change at 100 uM measured after 24 hrs by immunoblotting analysis (reference value: 1); format: functional
[23] = Effect on CDK4 protein expression in human HeLa cells assessed as fold change at 100 uM measured after 24 hrs by immunoblotting analysis (reference value: 1); format: functional
[24] = Inhibition of recombinant luciferase (unknown origin) incubated for 10 mins by luminescence based microplate reader analysis
[25] = Downregulation of p-AKT protein expression in human Hela cells assessed as fold change at 100 uM measured after 24 hrs by immunoblotting analysis (reference value: 1); format: functional
[26] = Effect on HSP90 protein expression in human HeLa cells assessed as fold change at 10 uM measured after 24 hrs by immunoblotting analysis (reference value: 1); format: functional
[27] = Effect on HSF1 protein expression in human HeLa cells assessed as fold change at 10 uM measured after 24 hrs by immunoblotting analysis (reference value: 1); format: functional
[28] = Downregulation of p-AKT protein expression in human Hela cells assessed as fold change at 10 uM measured after 24 hrs by immunoblotting analysis (reference value: 1); format: functional
[29] = Downregulation of CDK4 protein expression in human Hela cells assessed as fold change at 10 uM measured after 24 hrs by immunoblotting analysis (reference value: 1); format: functional
[30] = target: T2, Heat shock factor protein 1 (Homo sapiens); experiment: Activation of HSF1 in human HeLa cells assessed as increase in HSP70 mRNA expression at 10 uM measured after 12 hrs by Real-time PCR assay; format: cell-based; conditions: filed as activator
[31] = target: T2, Heat shock factor protein 1 (Homo sapiens); experiment: Activation of HSF1 in human HeLa cells assessed as increase in HSP47 mRNA expression at 10 uM measured after 12 hrs by Real-time PCR assay; format: cell-based; conditions: filed as activator
[32] = target: T2, Heat shock factor protein 1 (Homo sapiens); experiment: Activation of HSF1 in human HeLa cells assessed as increase in HSP27 mRNA expression at 10 uM measured after 12 hrs by Real-time PCR assay; format: cell-based; conditions: filed as activator
[33] = Effect on HSP70 protein expression in human HeLa cells assessed as fold change at 10 uM measured after 24 hrs by immunoblotting analysis (reference value: 1); format: functional

SMILES	IC50 [1] [µM]	IC50 [2] [µM]	Activity [3]	Activity [4]	inhibition [8]	inhibition [9]	inhibition [10]	inhibition [11]	Activity [16]	Activity [17]	Activity [18]	inhibition [20]	Activity [5]	Activity [6]	Activity [7]	Activity [12]	Activity [13]	fold change (FC) [14]	fold change (FC) [15]	Activity [21]	other results
CCCC[C@@H]1C[C@@H]2C(C(=O)OCC(C)C)=C(O)[C@H](C(=O)OCC(C)C)[C@@](O)([C@@H]1C(=O)OCC(C)C)[C@H]2C(=O)O	36.3	18.6	Active	Active	Active	Active	Active	Active	inactive	inactive	inactive	inactive	inactive	Active	inactive	inactive	inactive	0.95	0.9	Active	IC50 [19]: 45.8 µM; fold change (FC) [22]: 0.97; fold change (FC) [23]: 0.52; inhibition [24]: Active
CC(C)COC(=O)C1=C(O)[C@H](C(=O)OCC(C)C)[C@@]2(O)[C@H](C(=O)OCC(C)C)[C@H](C)C[C@H]1[C@@H]2C(=O)O	50.6	18.8	Active	Active	Active	Active	Active	Active	inactive	inactive	inactive	inactive	inactive	Active	inactive	inactive	inactive	0.96	0.98	Active	IC50 [19]: 95 µM; fold change (FC) [22]: 0.99; fold change (FC) [23]: 0.6; fold change (FC) [25]: 0.51; inhibition [24]: Active
COC(=O)C1=C(O)[C@H](C(=O)OC)[C@@]2(O)[C@H](C(=O)OC)[C@H](C)C[C@H]1[C@@H]2C(=O)O	> 100	> 100	–	–	–	–	–	–	–	–	–	–	–	–	–	–	–	–	–	–	–
COC1=C2C[C@@H](C)C[C@H](OC)[C@H](O)[C@@H](C)/C=C(\C)[C@H](OC(N)=O)[C@@H](OC)/C=C\C=C(/C)C(=O)NC(=CC1=O)C2=O [GELDANAMYCIN]	–	–	–	–	–	–	–	–	–	–	–	–	–	–	–	–	–	–	–	–	fold change (FC) [26]: 0.93; fold change (FC) [27]: 1.06; fold change (FC) [28]: 0.7; fold change (FC) [29]: 0.71; Activity [30]: Active; Activity [31]: Active; Activity [32]: Active; fold change (FC) [33]: 1.96
CCCC[C@@H]1C[C@@H]2C(C(=O)OCC(C)C)=C(O)[C@H](C(=O)OCC(C)C)[C@@](O)([C@@H]1C(=O)OCC(C)C)[C@H]2C(=O)OCC(C)C	> 100	72.7	–	–	–	–	–	–	–	–	–	–	–	–	–	–	–	–	–	–	–

The next lines start with results.

IC50 [1] [µM]	IC50 [2] [µM]	Activity [3]	Activity [4]	inhibition [8]	inhibition [9]	inhibition [10]	inhibition [11]	Activity [16]	Activity [17]	Activity [18]	inhibition [20]	SMILES	Activity [5]	Activity [6]	Activity [7]	Activity [12]	Activity [13]	fold change (FC) [14]	fold change (FC) [15]	Activity [21]	other results
> 100	22.6	–	–	–	–	–	–	–	–	–	–	CCCC[C@@H]1C[C@@H]2C(C(=O)OCC(C)C)=C(O)[C@H](C(=O)OC)[C@@](O)([C@@H]1C(=O)OCC(C)C)[C@H]2C(=O)O	–	–	–	–	–	–	–	–	–
70.4	40.1	Active	Active	Active	Active	Active	Active	inactive	inactive	inactive	inactive	CCCC[C@@H]1C[C@@H]2C(C(=O)OCC(C)C)=C(O)[C@H](C(=O)OC)[C@@](O)([C@@H]1C(=O)OC)[C@H]2C(=O)O	inactive	Active	inactive	inactive	inactive	0.97	1.02	Active	fold change (FC) [22]: 0.95; fold change (FC) [23]: 0.78; fold change (FC) [25]: 0.82; inhibition [24]: Active
> 100	44.8	–	–	–	–	–	–	–	–	–	–	CCCC[C@@H]1C[C@@H]2C(C(=O)OC)=C(O)[C@H](C(=O)OC)[C@@](O)([C@@H]1C(=O)OC)[C@H]2C(=O)O	–	–	–	–	–	–	–	–	–
